# In PMC6829886, “Inhibition of Non-Small Cell Lung Cancer Cells by Oxy210, an Oxysterol-Derivative that Antagonizes TGFβ and Hedgehog Signaling” (Cells, 2019):
# Columns and labels:
# [1] = Metabolic stability in human liver microsomes; type: in vitro ADME
# A549 cells [2] = assay: TGFβ-induced EMT in A549 cells (morphology, Q-RT-PCR); type: cell-based, human
# Description: Total RNA was extracted with the RNeasy Plus Mini Kit from Qiagen (Hilden, Germany) according to the manufacturer’s instructions. One microgram of RNA was reverse-transcribed using an iScript Reverse Transcription Supermix from Bio-Rad Laboratories (Hercules, CA, USA) to make single-stranded cDNA. The cDNAs were then mixed with Qi SYBR Green Supermix (Bio-Rad) for quantitative RT-PCR assay using a Bio-Rad I-cycler IQ quantitative thermocycler. All PCR samples were prepared in triplicate wells in a 96-well plate. After 40 cycles of PCR, melt curves were examined in order to ensure primer specificity. Fold changes in gene expression were calculated using the ΔΔCt method. Primers used for mouse were as follows: Oaz1 (5′-CCACTGCTTCGCCAGAGAG-3′) and (5′-CCCGGACCCAGGTTACTA-3′), Gli1 (5′- […]-3′ and 5′- GCT GATCCAGCCTAAGGTTCTC-3′), Ptch1 (5′-CCATCGGCGACAAGAACC-3′ and 5′-[…]-3′), Thbs1 (5′-[…]-3′ and 5′-CGGGGATCAGGTTGGCATT-3′), Cryab (5′-[…]-3′ and 5′-[…]-3′), Egr2 (5′-[…]-3′ and 5′-[…]-3′), CTGF (5′-GGGCCTCTTCTGCGATTTC-3′ and 5′-[…]-3′).
# Primers used for human were as follows: GAPDH (5′- […]-3′ and 5′- […]-3′), SHH (5′- CGGAGCGAGGAAGGGAAAG-3′) and (5′- […]-3′), GLI1 (5′- GAAGCCGAGCCGAGTATC-3′ and 5′-[…]-3′), GLI2 (5′-[…]-3′ and 5′-[…]-3′), Fn-EDA (5′- […]-3′ and 5′- […]-3′), E-Cadherin (5′- […]-3′ and 5′- TCCCAGGCGTAGACCAAGA-3′), SNAIL (5′- […]-3′ and 5′- […]-3′), N-Cadherin (5′- […]-3′ and 5′- […]-3′), Vimentin (5′- […]-3′ and 5′- […]-3′), ZO-1 (5′- […]-3′ and 5′- […]-3′), MMP2 (5′- […]-3′ and 5′- […]-3′), MMP9 (5′-[…]-3′ and 5′-[…]).
# Figure 8 Inhibition of TGFβ-induced EMT in NSCLC cells. (a) A549 cells were treated with TGFβ in the absence or presence of Oxy210 in RPMI 1640 containing 2% FBS for 5 days. The cells were washed with PBS and then fixed with 2% formaldehyde in PBS at room temperature for 15 min. Formaldehyde was then removed, cells washed with PBS and stained with 4% Trypan Blue for 5 min. Phase contrast images were obtained using a 20X objective lens. A549 (b,c) and H2030 (d) cells were treated in RPMI 1640 containing 0.1% FBS overnight and then pretreated for 2 h with Oxy210 in RPMI 1640 containing 0.1% FBS. Next, cells were treated with TGFβ in the absence or presence of Oxy210. After 48 h, RNA was extracted and analyzed by Q-RT-PCR for the expression of the genes as indicated and normalized to GAPDH expression. Data from a representative experiment are reported as the mean of triplicate determinations ± SD (** p < 0.01 vs. TGFβ treated cells; ## p < 0.01 vs. control).
# A549 cells [3] = assay: Matrigel invasion assay; type: cell-based, human; details: Matrigel chambers, 24 h
# Description: Invasion assays were performed using 24-well Matrigel invasion chambers (Corning, Corning, NY, USA), with the protocol provided by the manufacturer. A549 cells in 6-well plate starved in RPMI 1640 containing 0.1% FBS for 24 h were pre-treated with Oxy210 or DMSO for 2 h. 2 × 10^4 cells were seeded in each of the upper chambers containing RPMI 1640 supplemented with 0.1% FBS and the test agents. Each of the lower chambers contained RPMI 1640 supplemented with 5% FBS and the corresponding test agents. The cells were cultured for 24 h before assessment of cell invasion. Non-invaded cells in the upper surface of the membrane were removed using a cotton swab and the invaded cells in the lower surface were fixed and stained with 100% methanol and 0.4% trypan blue, respectively. The invaded cells were imaged and counted under the microscope at 40X total magnification.
# Figure 9 Inhibition of TGFβ-induced invasive activity of A549 cells. In vitro invasion assays were performed using chambers with matrigel-coated membrane as described in the Materials and Methods section. (a) Images of invaded cells on the membranes. (b) Quantitative analysis of invasion of A549 cells induced by TGFβ in the absence or presence of Oxy210. Data from a representative experiment are reported as the mean of triplicate determinations ± SD (** p < 0.01 vs. TGFβ treated cells; ## p < 0.01 vs. control).
compound,measurement,setting,value
"C[C@]12CC[C@H]3[C@@H](CC=C4C[C@@H](O)CC[C@@]43C)[C@@H]1CC[C@@H]2[C@](C)(O)CCc1cccnc1 [Oxy210, (3S,8S,9S,10R,13S,14S,17S)-17-((R)-2-hydroxy-4-(pyridin-3-yl)butan-2-yl)-10,13-dimethyl-2,3,4,7,8,9,10,11,12,13,14,15,16,17-tetradecahydro-1H-cyclopenta[a]phenanthren-3-ol]",half-life,"[1]; human, liver microsomes, read-out: HLM, Half-Life",1.15 h
same,remaining at 1 h,"[1]; read-out: HLM, % Remaining after 60 min",55%
same,TGFβ-induced EMT morphology changes,A549 cells [2],reversed
same,expression of E-Cad downregulated by TGFβ,A549 cells [2]; 48 h,partially rescued
same,"expression of mesenchymal genes upregulated by TGFβ (SNAIL, ZO-1, Fn-EDA, N-Cad)",A549 cells [2]; 48 h,inhibited the expression of mesenchymal genes
same,mRNA expression of MMP2 and MMP9 induced by TGFβ,A549 cells [2]; 48 h,inhibited the mRNA expression
same,TGFβ-induced invasive activity,A549 cells [3],inhibited this invasive activity in a dose dependent manner
